For experiment [1], the system named is HSD-1. Description: Monkey ex vivo HSD1 activity (cortisone to cortisol in harvested tissue). Further details: species or system Cynomolgus Monkeys. Conditions: for HSD-1 ex vivo activity, Mean % Veh Control: single 10 mg/kg oral dose. On the procedure:
Harvested tissues (approximately 150 mg) were minced into small, 2 mm pieces in the presence of 5× volume of incubation buffer. Cortisone at final concentrations of 0, 3, 10 or 30 μM was added to each well. Cell culture plates with tissues were incubated at 37° C. for three hours. Two-hundred μL of tissue culture supernatant was then removed and spun at 1000 rpm in an Eppindorf tube, and then 100 μL of resulting supernatant was aliquotted into two tubes for LCMS analysis of cortisol.

The subject of experiment [2] is phosphorylated CREB. Description: Phosphorylated CREB immunohistochemistry in brain after food-in-diet dosing. It is filed as in vivo, mice. As to conditions: 18 days food-in-diet (10 and 100 mg/kg/day). On the procedure: In vivo signaling studies were conducted to examine the biochemical pathways that may be mechanistically involved in the cognitive efficacy associated with Compound KK. An important signaling process that serves as a biochemical correlate of synaptic plasticity underlying learning and memory is the phosphorylation of CREB (c-AMP-response element binding protein), a transcription factor critical to long-term memory. To investigate the effects of Compound KK on CREB phosphorylation, CD1 mice treated and tested (data presented in FIG. 1) were given a 24-hour rest after testing before immunohistochemical procedures commenced.
Male CD-1 mice were obtained from Charles River, Wilmington, Mass. Mice were group-housed 10 per cage. The body weight upon arrival was 20-25 g. […]
Compound KK was administered via a drug-in-diet administration (100 mg/kg/day in Western diet) or (10 mg/kg/day in Western diet). […] Immuno-reactivity (IR) was quantified using an image analysis system (Leica, Quantimet 500) that determined number and/or area of peroxidase substrate-positive stained neurons from digitized photomicrographs according to a pixel gray level empirically determined prior to analysis. Overall statistical significance was determined using a one-way ANOVA, with Dunnett's post hoc analyses used to determine significance (p<0.05 was considered significant).

Experiment [3] has as its system CD-1 mice. Kind of experiment: 24-hour inhibitory avoidance task in mice after drug-in-diet dosing. It is filed as in vivo. As to conditions: both doses (10 and 100 mg/kg/day in Western diet), vs vehicle control mice. On the procedure:
The 24-hour inhibitory avoidance task in mice is a measure of one-trial learning and memory consolidation in response to a discrete aversive event (foot-shock). Mice are first placed in an illuminated compartment of a two-compartment apparatus. Mice will naturally step through into an adjoining dark compartment, which they prefer. When the mice enter the dark they receive a mild foot-shock. To assess memory, mice are tested 24 hours later and the length of time the animal refrains from entering the dark compartment is recorded (higher latencies indicate improved memory for the aversive event).
Male CD-1 mice were obtained from Charles River, Wilmington, Mass. Mice were group-housed 10 per cage. The body weight upon arrival was 20-25 g. Food and water were available ad libitum except during experiments. […]
On the first day of testing (17 days after drug-in-diet was presented) mice were removed from the colony room in their home cage, brought to the testing room, and left undisturbed for 2 hours prior to testing initiation. […] The latency to enter the dark chamber was recorded and was the dependent variable measured for assessing memory retention (latency is defined as entry of the whole mouse; all 4 paws on the grids in the dark side, plus the tail in the chamber for 5 sec; 180 sec is maximum latency). Data were analyzed using Mann Whitney U comparisons. […]

Experiment [4] relates to serotonin (5-HT) levels. Kind of experiment: Microdialysis, cortical/hippocampal serotonin levels. In kind it is in vivo, Sprague Dawley rats. As to conditions: single administration 30 mg/kg, p.o. On the procedure:
(§1) Microdialysis studies (resting or challenging conditions) in freely moving, male Sprague Dawley rats (Janvier, 295-315 g, n=5-8/treatment group) were performed using stereotactically instrumented microdialysis probes (CMA/12-14-2): mPFC, hippocampus. Aliquots of the same microdialysate fractions (6 before, and 9-12 after compound administration) were analyzed either for acetylcholine or for serotonin by HPLC and electrochemical detection.
This is a feature shared by marketed anti-depressive drugs and might indicate the potential use for 11β-HSD1 inhibitors as antidepressants/anxiolytic drugs. These findings remain to be confirmed by (i) investigating 11β-HSD1 inhibitors from different chemotype(s) in selected microdialysis studies and/or (ii) in animal models of depression/anxiety.

For experiment [5], the system named is Fisher rats. Description: Rat EEG REM sleep parameters. It is filed as in vivo. As to conditions: 30 mg/kg, 3 times at 24, 26, and 0.1 hours before measurement; 8 h EEG. On the procedure: EEG of Fisher rats (n=8/group) with chronically implanted supracortical EEG-electrodes were analyzed for an 8 h period. Intraindividual drug-induced changes of power spectra were analyzed. For REM sleep the number of REM episodes, latency to first REM, and total REM time was analyzed.

Experiment [6] relates to Sprague Dawley rats. Kind of experiment: Short-term social recognition memory in the rat. In kind it is in vivo. As to conditions: 30 mg/kg po at 24, 18 and 1 hour before first juvenile exposure, vs vehicle control rats. On the procedure:
Social memory and social cognition are impaired in disorders such as Alzheimer's disease and schizophrenia. One of the more commonly used preclinical models of social recognition memory is short-term social recognition in the rat, a model of short-term memory based on the recognition of a juvenile rat by an adult rat. […] The juvenile rat is then removed and reintroduced 120 min later, and interactive behavior of the adult rat is again monitored. If memory has been lost over the interval between trials 1 and 2, the extent of interaction is equal (expressed as a ratio of investigation time of T1/T2) and the ratio will be close to 1. However, if the adult remembers the juvenile, the investigation ratio declines. To test for non-specific effects, a novel juvenile is introduced at 120 minutes instead of the familiar juvenile. […]
Rats were pre-dosed po at 24, 18 and 1 hour before first juvenile rat exposure with vehicle, or Compound MM (30 mg/kg). […] The time the adult spent exploring (sniffing, grooming, close following) the juvenile during this test session was recorded, and defined as the first investigation duration. […] Data were analyzed using a one-way analysis of variance. If there was a significant effect, subsequent post hoc significance was determined using Dunnett's multiple comparison testing (p<0.05 was regarded as significant).

Experiment [7] deals with ACh release. Kind of experiment: Microdialysis, cortical/hippocampal acetylcholine levels. Conditions: single administration 30 mg/kg, p.o. It is filed as in vivo, Sprague Dawley rats. On the procedure:
as §1

Here are results for 2 compounds from patent US8993632B2, “Inhibitors of the 11-beta-hydroxysteroid dehydrogenase type 1 enzyme” (AbbVie Inc., priority 2005, dated 2015).

With `CC(C)(Oc1ccc(F)cc1Cl)C(=O)NC1C2CC3CC1CC(S(C)(=O)=O)(C3)C2` (centres unmarked) [Compound KK, 2-(2-Chloro-4-fluorophenoxy)-2-methyl-N-[(E)-5-(methylsulfonyl)-2-adamantyl]propanamide], the “ex vivo inhibition of HSD1 in monkey brain, fat and liver” value in experiment [1] (2.5 and 16 hours following a single oral 10 mg/kg dose) is “potent ex vivo inhibition”. For the same compound, the “HSD-1 ex vivo activity, Mean % Veh Control” value in experiment [1] (Cerebral Cortex, 16 hours) stood at 30%; in experiment [1] (Hippocampus, 16 hours) it was 42%; in experiment [1] (Liver, 2.5 hours), 38%; in experiment [1] (Liver, 16 hours), 9%; in experiment [1] (Mesenteric Fat, 2.5 hours), 90%; in experiment [1] (Mesenteric Fat, 16 hours), 50%. Also, the “phosphorylated CREB, FIG. 2” value in experiment [2] is given as “increase in phosphorylated CREB”. The “memory retention (Mean Transfer Latency), FIG. 1” value in experiment [3] is recorded as “significant improvement in memory retention”.

As for `O=C(CN1CCN(c2ccc(C(F)(F)F)cn2)CC1)NC1C2CC3CC1CC(O)(C3)C2` (centres unmarked) [Compound MM, N-[(E)-5-Hydroxy-2-adamantyl]-2-{-4-[5-(trifluoromethyl)pyridin-2-yl]piperazin-1-yl}acetamide], in experiment [4], the “serotonin (5-HT) levels in the medial prefrontal cortex and in the hippocampus” value is on record as “long-lasting increase”. Further, in experiment [5], the “increase of latency to first REM” value stood at 62%, the “reduction of REM time” value was found to be 23%, the “reduction of number of REM sleep episodes” value is recorded as 16% and the “reduction of total sleep time” value is 10%. In addition, the “short-term memory retention, FIG. 4” value in experiment [6] was “significant improvement in short-term memory retention”. In experiment [7] (acute), the “ACh release under resting conditions” value is “did not change ACh release”. The “ACh release under challenging conditions (novel cage), cortex and hippocampus” value in experiment [7] is reported as “did not induce any further stimulation of ACh release”.
